The numbers were not newly measured in patent publication US20230167505A1, “CIRCULATING TUMOR DNA AS A BIOMARKER FOR LEUKEMIA TREATMENT” (Cardiff Oncology, Inc., priority 2020, published 2023), which cites them from elsewhere.

For this data set the following is noted: in vivo; cited from earlier work.

`CC[C@@H]1C(=O)N(C)c2cnc(Nc3ccc(C(=O)N[C@H]4CC[C@H](N5CCN(CC6CC6)CC5)CC4)cc3OC)nc2N1C(C)C` [volasertib]: the half-life was about 120 h.
